# From PubChem BioAssay (NCI)
#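 Tested at 5 concentrations; 48 h exposure; 96-well plates; endpoints linearly interpolated, else capped at highest concentration. The concentration for 50% growth inhibition is given as GI50. TGI: total growth inhibition.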
# Tests used:
# Assay in all cases: DTP human tumour cell line panel, 48 h
# 786-0 renal = system: 786-0 renal
# A498 renal = system: A498 renal
# A549 NSCLC = system: A549 NSCLC
# ACHN renal = system: ACHN renal
# BT-549 breast = system: BT-549 breast
# CAKI-1 renal = system: CAKI-1 renal
# CCRF-CEM leukemia = system: CCRF-CEM leukemia
# COLO 205 colon = system: COLO 205 colon
# DU-145 prostate = system: DU-145 prostate
# EKVX NSCLC = system: EKVX NSCLC
# HCC-2998 colon = system: HCC-2998 colon
# HCT-116 colon = system: HCT-116 colon
# HCT-15 colon = system: HCT-15 colon
# HL-60(TB) leukemia = system: HL-60(TB) leukemia
# HOP-62 NSCLC = system: HOP-62 NSCLC
# HOP-92 NSCLC = system: HOP-92 NSCLC
# HS 578T breast = system: HS 578T breast
# HT29 colon = system: HT29 colon
# IGROV1 ovarian = system: IGROV1 ovarian
# K-562 leukemia = system: K-562 leukemia
# KM12 colon = system: KM12 colon
# LOX IMVI melanoma = system: LOX IMVI melanoma
# M14 melanoma = system: M14 melanoma
# MALME-3M melanoma = system: MALME-3M melanoma
# MCF7 breast = system: MCF7 breast
# MDA-MB-231 breast = system: MDA-MB-231 breast
# MOLT-4 leukemia = system: MOLT-4 leukemia
# NCI-H226 lung = system: NCI-H226 lung
# NCI-H23 lung = system: NCI-H23 lung
# NCI-H460 lung = system: NCI-H460 lung
# NCI-H522 lung = system: NCI-H522 lung
# NCI/ADR-RES ovarian = system: NCI/ADR-RES ovarian
# OVCAR-3 ovarian = system: OVCAR-3 ovarian
# OVCAR-4 ovarian = system: OVCAR-4 ovarian
# OVCAR-5 ovarian = system: OVCAR-5 ovarian
# OVCAR-8 ovarian = system: OVCAR-8 ovarian
# PC-3 prostate = system: PC-3 prostate
# RPMI-8226 leukemia = system: RPMI-8226 leukemia
# RXF 393 renal = system: RXF 393 renal
# SF-268 CNS = system: SF-268 CNS
# SF-295 CNS = system: SF-295 CNS
# SF-539 CNS = system: SF-539 CNS
# SK-MEL-2 melanoma = system: SK-MEL-2 melanoma
# SK-MEL-28 melanoma = system: SK-MEL-28 melanoma
# SK-MEL-5 melanoma = system: SK-MEL-5 melanoma
# SK-OV-3 ovarian = system: SK-OV-3 ovarian
# SN12C renal = system: SN12C renal
# SNB-19 CNS = system: SNB-19 CNS
# SNB-75 CNS = system: SNB-75 CNS
# SR leukemia = system: SR leukemia
# SW-620 colon = system: SW-620 colon
# T-47D breast = system: T-47D breast
# TK-10 renal = system: TK-10 renal
# U251 CNS = system: U251 CNS
# UACC-257 melanoma = system: UACC-257 melanoma
# UACC-62 melanoma = system: UACC-62 melanoma
# UO-31 renal = system: UO-31 renal
compound,measurement,setting,value
O=C(Nc1ncc(Cc2ccccc2)s1)c1ccc2c(c1)OCCCO2,GI50,786-0 renal,2440 nM
same,TGI,786-0 renal,> 100000 nM
same,GI50,A498 renal,282 nM
same,TGI,A498 renal,3030 nM
same,GI50,A549 NSCLC,725 nM
same,TGI,A549 NSCLC,> 100000 nM
same,GI50,ACHN renal,644 nM
same,TGI,ACHN renal,> 100000 nM
same,GI50,BT-549 breast,1930 nM
same,TGI,BT-549 breast,> 100000 nM
same,GI50,CAKI-1 renal,526 nM
same,TGI,CAKI-1 renal,> 100000 nM
same,GI50,CCRF-CEM leukemia,524 nM
same,TGI,CCRF-CEM leukemia,> 100000 nM
same,GI50,COLO 205 colon,579 nM
same,TGI,COLO 205 colon,> 100000 nM
same,GI50,DU-145 prostate,2300 nM
same,TGI,DU-145 prostate,> 100000 nM
same,GI50,EKVX NSCLC,1050 nM
same,TGI,EKVX NSCLC,> 100000 nM
same,GI50,HCC-2998 colon,885 nM
same,TGI,HCC-2998 colon,> 100000 nM
same,GI50,HCT-116 colon,468 nM
same,TGI,HCT-116 colon,> 100000 nM
same,GI50,HCT-15 colon,376 nM
same,TGI,HCT-15 colon,> 100000 nM
same,GI50,HL-60(TB) leukemia,330 nM
same,TGI,HL-60(TB) leukemia,> 51600 nM
same,GI50,HOP-62 NSCLC,730 nM
same,TGI,HOP-62 NSCLC,> 100000 nM
same,GI50,HOP-92 NSCLC,> 24000 nM
same,TGI,HOP-92 NSCLC,> 100000 nM
same,GI50,HS 578T breast,1140 nM
same,TGI,HS 578T breast,> 100000 nM
same,GI50,HT29 colon,361 nM
same,TGI,HT29 colon,> 100000 nM
same,GI50,IGROV1 ovarian,880 nM
same,TGI,IGROV1 ovarian,> 100000 nM
same,GI50,K-562 leukemia,254 nM
same,TGI,K-562 leukemia,> 100000 nM
same,GI50,KM12 colon,372 nM
same,TGI,KM12 colon,> 100000 nM
same,GI50,LOX IMVI melanoma,323 nM
same,TGI,LOX IMVI melanoma,> 100000 nM
same,GI50,M14 melanoma,374 nM
same,TGI,M14 melanoma,> 100000 nM
same,GI50,MALME-3M melanoma,882 nM
same,TGI,MALME-3M melanoma,> 100000 nM
same,GI50,MCF7 breast,374 nM
same,TGI,MCF7 breast,> 100000 nM
same,GI50,MDA-MB-231 breast,2770 nM
same,TGI,MDA-MB-231 breast,> 100000 nM
same,GI50,MOLT-4 leukemia,478 nM
same,TGI,MOLT-4 leukemia,> 100000 nM
same,GI50,NCI-H226 lung,1440 nM
same,TGI,NCI-H226 lung,> 100000 nM
same,GI50,NCI-H23 lung,2430 nM
same,TGI,NCI-H23 lung,> 100000 nM
same,GI50,NCI-H460 lung,407 nM
same,TGI,NCI-H460 lung,> 100000 nM
same,GI50,NCI-H522 lung,1030 nM
same,TGI,NCI-H522 lung,> 100000 nM
same,GI50,NCI/ADR-RES ovarian,547 nM
same,TGI,NCI/ADR-RES ovarian,> 100000 nM
same,GI50,OVCAR-3 ovarian,614 nM
same,TGI,OVCAR-3 ovarian,> 100000 nM
same,GI50,OVCAR-4 ovarian,5220 nM
same,TGI,OVCAR-4 ovarian,> 100000 nM
same,GI50,OVCAR-5 ovarian,11500 nM
same,TGI,OVCAR-5 ovarian,> 100000 nM
same,GI50,OVCAR-8 ovarian,2010 nM
same,TGI,OVCAR-8 ovarian,> 100000 nM
same,GI50,PC-3 prostate,927 nM
same,TGI,PC-3 prostate,> 100000 nM
same,GI50,RPMI-8226 leukemia,428 nM
same,GI50,RXF 393 renal,1780 nM
same,TGI,RXF 393 renal,> 100000 nM
same,GI50,SF-268 CNS,1920 nM
same,TGI,SF-268 CNS,> 100000 nM
same,GI50,SF-295 CNS,396 nM
same,TGI,SF-295 CNS,> 100000 nM
same,GI50,SF-539 CNS,490 nM
same,TGI,SF-539 CNS,4270 nM
same,GI50,SK-MEL-2 melanoma,1360 nM
same,TGI,SK-MEL-2 melanoma,> 100000 nM
same,GI50,SK-MEL-28 melanoma,838 nM
same,TGI,SK-MEL-28 melanoma,> 100000 nM
same,GI50,SK-MEL-5 melanoma,424 nM
same,TGI,SK-MEL-5 melanoma,1960 nM
same,GI50,SK-OV-3 ovarian,3170 nM
same,TGI,SK-OV-3 ovarian,> 100000 nM
same,GI50,SN12C renal,2120 nM
same,TGI,SN12C renal,> 100000 nM
same,GI50,SNB-19 CNS,1000 nM
same,TGI,SNB-19 CNS,> 100000 nM
same,GI50,SNB-75 CNS,613 nM
same,TGI,SNB-75 CNS,> 29300 nM
same,GI50,SR leukemia,299 nM
same,TGI,SR leukemia,> 100000 nM
same,GI50,SW-620 colon,444 nM
same,TGI,SW-620 colon,> 100000 nM
same,GI50,T-47D breast,541 nM
same,TGI,T-47D breast,> 100000 nM
same,GI50,TK-10 renal,6170 nM
same,TGI,TK-10 renal,> 100000 nM
same,GI50,U251 CNS,631 nM
same,TGI,U251 CNS,> 100000 nM
same,GI50,UACC-257 melanoma,1610 nM
same,TGI,UACC-257 melanoma,> 100000 nM
same,GI50,UACC-62 melanoma,302 nM
same,TGI,UACC-62 melanoma,> 100000 nM
same,GI50,UO-31 renal,1420 nM
same,TGI,UO-31 renal,> 100000 nM
